We go through 4 compounds from paper PMC5863496, “Mesobuthus Venom-Derived Antimicrobial Peptides Possess Intrinsic Multifunctionality and Differential Potential as Drugs” (Frontiers in Microbiology, 2018).

Ends that are not written are not given here.

What all share (experiment): Inhibition-zone assay (CL)
Holding throughout (type): cell-based

Experiment [1] has as its system Bacillus megaterium CGMCC 1.0459. As to conditions: BM CGMCC 1.0459, N.A. = no activity at 0.8 nmol peptide each well. How it is done: (§1) The antimicrobial activity of seven peptides, including MeuFSPL-1, MeuFSPL-2, Marmelittin, Melittin, Meucin-22, Marcin-22, and MeuTXKβ1, was evaluated by the inhibition-zone assay previously described in our studies (Hultmark, [1998]; Zhu et al., [2012a]; Zhu and Gao, [2014]). Temperatures used were 30 or 37°C for bacteria or 28°C for fungi. Media used were Luria-Bertani (LB) Broth (10 g tryptone, 5 g yeast extract, and 5 g NaCl in 1 l of water) or Nutrient Broth (10 g peptone, 5 g beef extract powder, and 5 g NaCl in 1 l of water) or GYM(Isp2) (4 g yeast extract, 10 g malt extract, 4 g glucose, 2 g CaCO3 in 1 l of water) for bacteria or Potato Dextrose Broth (200 g patato and 20 g glucose in 1 l of water) for fungi. To make plates, 10 μl of microbial culture (~2 × 10^6 bacterial cells or fungal spores/ml) were mixed in 6 ml of medium containing 0.8% agar and poured into Peri dishes of 9.0 cm diameter. Wells with a diameter of 2 mm were punched into the medium, filled with 2 μl of sample each well. In this assay, three different doses of peptides were applied to three independent wells in one standard bacterial plate. After incubation overnight, inhibition zones were measured and used to calculate lethal concentrations (CL), a concentration just sufficient to inhibit bacterial growth (Hultmark, [1998]; Gao et al., [2009]). CL values are calculated from a plot of d^2 against log n, where d is the diameter (in cm) and n is the amount of sample applied in the well (in nmol). The plot is linear and thus CL can be calculated from the slope (k) and the intercept (m) of this plot. The formula used here is CL = 2.93/ak10^m/k, where “a” is the thickness of the bacterial plate and “CL” is in μM.

Experiment [2] has as its system Bacillus subtilis CGMCC 1.2428. As to conditions: BS CGMCC 1.2428, N.A. = no activity at 0.8 nmol peptide each well. How it is done: as §1
Experiment [3] has as its system Escherichia coli ATCC 25922. As to conditions: EC ATCC 25922, N.A. = no activity at 0.8 nmol peptide each well. How it is done:
as §1

In experiment [4] the test system is Escherichia coli Am. J16c. As to conditions: EC Am. J16c, N.A. = no activity at 0.8 nmol peptide each well. How it is done:
as §1

Experiment [5] deals with Escherichia coli Am. J23a. To be noted: EC Am. J23a, N.A. = no activity at 0.8 nmol peptide each well. How it is done: as §1
For experiment [6], the system named is Escherichia coli CIP. J14b. As to conditions: EC CIP. J14b, N.A. = no activity at 0.8 nmol peptide each well. How it is done: as §1
The next experiment relates to Escherichia coli D. G2b. As to conditions: EC D. G2b, N.A. = no activity at 0.8 nmol peptide each well. How it is done: as §1
Experiment [7] deals with Micrococcus luteus CGMCC 1.0290. To be noted: ML CGMCC 1.0290, N.A. = no activity at 0.8 nmol peptide each well. How it is done: as §1
Experiment [8] relates to Staphylococcus aureus J685. To be noted: SA J685, N.A. = no activity at 0.8 nmol peptide each well. How it is done: as §1
For experiment [9], the system named is Staphylococcus aureus J698. To be noted: SA J698, N.A. = no activity at 0.8 nmol peptide each well. How it is done: as §1
Experiment [10] concerns Staphylococcus aureus J700. To be noted: SA J700, N.A. = no activity at 0.8 nmol peptide each well. How it is done:
as §1

Experiment [11] has as its system Staphylococcus warneri ATCC 1.2824. To be noted: SW ATCC 1.2824, N.A. = no activity at 0.8 nmol peptide each well. How it is done:
as §1

Experiment [12] has as its system Stenotrophomonas maltophilia CGMCC 1.1788. To be noted: SMAL CGMCC 1.1788, N.A. = no activity at 0.8 nmol peptide each well. How it is done:
as §1

Experiment [13] has as its system Streptococcus mutans ATCC 1.2499. To be noted: SM ATCC 1.2499, N.A. = no activity at 0.8 nmol peptide each well. How it is done: as §1
Experiment [14] has as its system Streptococcus salivarius ATCC 1.2498. As to conditions: SSAL ATCC 1.2498, N.A. = no activity at 0.8 nmol peptide each well. How it is done: as §1
Experiment [15] concerns Streptococcus sanguinis ATCC 1.2497. To be noted: SSAN ATCC 1.2497, N.A. = no activity at 0.8 nmol peptide each well. How it is done:
as §1

In experiment [16] the test system is methicillin-resistant Staphylococcus aureus P1374. To be noted: MRSA P1374, N.A. = no activity at 0.8 nmol peptide each well. How it is done:
as §1

Experiment [17] relates to methicillin-resistant Staphylococcus aureus P1386. To be noted: MRSA P1386, N.A. = no activity at 0.8 nmol peptide each well. How it is done: as §1
Experiment [18] has as its system methicillin-resistant coagulase-negative Staphylococcus P1369. As to conditions: MRCNS P1369, N.A. = no activity at 0.8 nmol peptide each well. How it is done: as §1
Experiment [19] deals with methicillin-sensitive Staphylococcus aureus CGMCC 1.89. To be noted: MSSA CGMCC 1.89, N.A. = no activity at 0.8 nmol peptide each well. How it is done:
as §1

Experiment [20] has as its system penicillin-resistant Staphylococcus aureus P1383. To be noted: PRSA P1383; inhibition-zone assay; N.A. = no activity at 0.8 nmol peptide each well. How it is done:
as §1

In experiment [21] the test system is penicillin-resistant Staphylococcus epidermidis P1389. As to conditions: PRSE P1389, N.A. = no activity at 0.8 nmol peptide each well. How it is done: as §1
The test system of experiment [22] is penicillin-sensitive Staphylococcus epidermidis P1111. As to conditions: PSSE P1111, N.A. = no activity at 0.8 nmol peptide each well. How it is done: as §1

For `CC[C@H](C)[C@H](NC(=O)CN)C(=O)NCC(=O)N[C@@H](C)C(=O)N[C@H](C(=O)N[C@@H](CC(C)C)C(=O)N[C@@H](CCCCN)C(=O)N[C@H](C(=O)N[C@@H](CC(C)C)C(=O)N[C@H](C(=O)N[C@H](C(=O)NCC(=O)N[C@@H](CC(C)C)C(=O)N1CCC[C@H]1C(=O)N[C@@H](C)C(=O)N[C@@H](CC(C)C)C(=O)N[C@H](C(=O)N[C@@H](CO)C(=O)N[C@@H](Cc1c[nH]c2ccccc12)C(=O)N[C@H](C(=O)N[C@@H](CCCCN)C(=O)N[C@@H](CCCNC(=N)N)C(=O)N[C@@H](CCCCN)C(=O)N[C@@H](CCCNC(=N)N)C(=O)N[C@@H](CCC(N)=O)C(=O)N[C@@H](CCC(N)=O)C(N)=O)[C@@H](C)CC)[C@@H](C)CC)[C@@H](C)O)[C@@H](C)O)C(C)C)C(C)C` [Melittin, reference compound], the “Lethal concentration (CL)” value in experiment [1] came out at 11.6 µM; in [2] it was 9.2 µM; in [3] it was 14.4 µM; in [4], 24.54 µM; in experiment [5], 18.20 µM; in experiment [6], 18.20 µM. For the same compound, the “Lethal concentration (CL)” value in the experiment on Escherichia coli D. G2b was determined as 18.20 µM; in experiment [7] it was 7.5 µM; in experiment [8], 13.70 µM; in experiment [9] it was 12.08 µM; in experiment [10], 12.08 µM; in [11] it was 1.37 µM. Besides, the “Lethal concentration (CL)” value in [12] came to 18.72 µM; in experiment [13], 9.37 µM; in experiment [14], 18.20 µM; in experiment [15], 16.41 µM; in experiment [16], 11.6 µM; in experiment [17] it was 9.3 µM. Besides, the “Lethal concentration (CL)” value in experiment [18] was found to be 9.3 µM; in [19], 7.9 µM; in [20], 9.1 µM; in experiment [21], 9.1 µM; in experiment [22], 13.4 µM.
Consider “FFGHLFKLATKIIPSLFQ [MUC-18, reference compound]”, for which the “Lethal concentration (CL)” value stood at 2.11 µM in experiment [2]; 22.72 µM in experiment [4]; 22.72 µM in experiment [5]; 22.72 µM in experiment [6]; 37.28 µM in the experiment with Escherichia coli D. G2b; 8.71 µM in [8]. The “Lethal concentration (CL)” value stood at 5.16 µM in experiment [9]; 6.86 µM in [10]; 11.69 µM in experiment [11]; 13.72 µM in [12]; 9.32 µM in experiment [13]; 9.24 µM in experiment [14]. Besides, the “Lethal concentration (CL)” value in [15] amounted to 13.72 µM; in experiment [16], 3.35 µM; in experiment [17], 1.35 µM; in experiment [18] it was 4.89 µM; in [19], 0.87 µM; in [20] it was 3.72 µM. The “Lethal concentration (CL)” value is 3.35 µM in experiment [21] and 0.87 µM in experiment [22].
For FLFSLIPSAISGLISAFK-NH2 [MeuFSPL-1], the “Lethal concentration (CL)” value in experiment [1] is 2.10 µM; in experiment [2], 4.74 µM; in [3], 12.50 µM; in experiment [4] it was 43.66 µM; in experiment [5], 25.00 µM; in the experiment with Escherichia coli D. G2b it was 25.00 µM. Also, the “Lethal concentration (CL)” value in experiment [7] was 2.26 µM; in experiment [8], 14.72 µM; in [9], 4.80 µM; in experiment [10], 10.92 µM; in [11], 2.81 µM; in experiment [12] it was 1.13 µM. Also, the “Lethal concentration (CL)” value in experiment [13] came to 4.22 µM; in [14], 4.80 µM; in experiment [15] it was 5.20 µM; in experiment [16], 6.16 µM; in experiment [17] it was 6.24 µM; in experiment [18] it was 8.48 µM. The “Lethal concentration (CL)” value in experiment [19] came to 5.27 µM; in experiment [20], 2.81 µM; in experiment [21] it was 7.36 µM; in experiment [22], 7.36 µM.
With FLFSLIPSAISGLINAFK-NH2 [MeuFSPL-2], the “Lethal concentration (CL)” value came to 2.67 µM in experiment [1]; 4.01 µM in [2]; 12.16 µM in [3]; 37.43 µM in experiment [5]; 37.43 µM in [6]; 21.42 µM with Escherichia coli D. G2b. In addition, the “Lethal concentration (CL)” value in experiment [7] amounted to 1.50 µM; in experiment [8], 5.36 µM; in [9], 4.11 µM; in [10], 8.44 µM; in experiment [11], 8.65 µM; in experiment [12], 3.52 µM. In addition, the “Lethal concentration (CL)” value in experiment [13] is 5.23 µM; in experiment [14] it was 5.36 µM; in experiment [15], 2.70 µM; in experiment [16] it was 3.61 µM; in experiment [17], 5.13 µM; in [18] it was 3.88 µM. Also, the “Lethal concentration (CL)” value came out at 3.14 µM in experiment [19], 3.52 µM in experiment [20], 5.13 µM in experiment [21] and 4.77 µM in experiment [22].
